Laboratory results from patent US20190282518A1 (Bryn Pharma, LLC, priority 2018, published 2019).

Test system: histamine induced nasal congestion
Conditions: 5% histamine aerosol, dogs

SMILES: NCCc1c[nH]cn1 [Histamine]
- induction of nasal congestion: induced congestion in all animals to varying degrees
